The subject of data set [1] is HCT-116 colon cancer cell line. In words: MTT assay, in vitro cytotoxicity against HCT-116. The data set is classed as cell-based. The settings on record: Homo sapiens, HCT-116, MTT assay, read-out: IC50, in vitro cytotoxicity against HCT116 cell line. On the procedure: The target compounds were evaluated for their anticancer activity against HCT-116 colon cancer cell line in which both c-Met and VEGFR-2 are overexpressed.[54]^,[55] […] The half maximal inhibitory concentration (IC50) was calculated for each compound (Table 1).
(§1) To scrutinise the cytotoxicity of the target compounds on colorectal cancer and normal cells, MTT assay was carried out against HCT-116 and WI38 cell lines, respectively.
In general terms: Tetrazolium dyes change colour on reduction, which living cells bring about.

The test system of data set [2] is WI38 normal cell line. In words: MTT assay, in vitro toxicity against normal cells. The class given is cell-based. The settings on record: HCT-116 versus WI38. On the procedure:
(§2) To scrutinise the safety of target compounds on normal cells, compounds 4b and 4e were selected to evaluate their cytotoxic activity against WI38 normal cell line (Table 2).
as §1

Data set [3] is described as follows: MTT assay, in vitro toxicity against normal cells. The data set is classed as cell-based. Conditions: human, WI38 normal cells; MTT assay, WI38; read-out: IC50, in vitro cytotoxicity against WI38 normal cell line. On the procedure: as §2, §1
Data set [4] deals with HCT-116 colon cancer cell line. In words: Cell cycle analysis. The class given is cell-based. The settings on record: HCT-116, treated at IC50 concentration, 24 h. On the procedure:
Aiming to further study the mechanism of the target compounds, the cell cycle arrest experiment of 4b and 4e blocking the cell cycle of HCT-116 was carried out using Annexin V-FITC/PI staining (Table 4 and Figure 8).[56]
(§3) The effects of both 4b and 4e on progress of cell cycle and induction of apoptosis in […] cells were carried out using Annexin V-FITC Apoptosis Detection Kit (BioVision Research Products, Mountain View, CA) (see Supplementary Data)[8].

Data set [5] deals with c-Met (Homo sapiens, UniProt P08581). In words: In vitro c-Met tyrosine kinase inhibition assay.
Chain of c-Met (P08581 25-1390): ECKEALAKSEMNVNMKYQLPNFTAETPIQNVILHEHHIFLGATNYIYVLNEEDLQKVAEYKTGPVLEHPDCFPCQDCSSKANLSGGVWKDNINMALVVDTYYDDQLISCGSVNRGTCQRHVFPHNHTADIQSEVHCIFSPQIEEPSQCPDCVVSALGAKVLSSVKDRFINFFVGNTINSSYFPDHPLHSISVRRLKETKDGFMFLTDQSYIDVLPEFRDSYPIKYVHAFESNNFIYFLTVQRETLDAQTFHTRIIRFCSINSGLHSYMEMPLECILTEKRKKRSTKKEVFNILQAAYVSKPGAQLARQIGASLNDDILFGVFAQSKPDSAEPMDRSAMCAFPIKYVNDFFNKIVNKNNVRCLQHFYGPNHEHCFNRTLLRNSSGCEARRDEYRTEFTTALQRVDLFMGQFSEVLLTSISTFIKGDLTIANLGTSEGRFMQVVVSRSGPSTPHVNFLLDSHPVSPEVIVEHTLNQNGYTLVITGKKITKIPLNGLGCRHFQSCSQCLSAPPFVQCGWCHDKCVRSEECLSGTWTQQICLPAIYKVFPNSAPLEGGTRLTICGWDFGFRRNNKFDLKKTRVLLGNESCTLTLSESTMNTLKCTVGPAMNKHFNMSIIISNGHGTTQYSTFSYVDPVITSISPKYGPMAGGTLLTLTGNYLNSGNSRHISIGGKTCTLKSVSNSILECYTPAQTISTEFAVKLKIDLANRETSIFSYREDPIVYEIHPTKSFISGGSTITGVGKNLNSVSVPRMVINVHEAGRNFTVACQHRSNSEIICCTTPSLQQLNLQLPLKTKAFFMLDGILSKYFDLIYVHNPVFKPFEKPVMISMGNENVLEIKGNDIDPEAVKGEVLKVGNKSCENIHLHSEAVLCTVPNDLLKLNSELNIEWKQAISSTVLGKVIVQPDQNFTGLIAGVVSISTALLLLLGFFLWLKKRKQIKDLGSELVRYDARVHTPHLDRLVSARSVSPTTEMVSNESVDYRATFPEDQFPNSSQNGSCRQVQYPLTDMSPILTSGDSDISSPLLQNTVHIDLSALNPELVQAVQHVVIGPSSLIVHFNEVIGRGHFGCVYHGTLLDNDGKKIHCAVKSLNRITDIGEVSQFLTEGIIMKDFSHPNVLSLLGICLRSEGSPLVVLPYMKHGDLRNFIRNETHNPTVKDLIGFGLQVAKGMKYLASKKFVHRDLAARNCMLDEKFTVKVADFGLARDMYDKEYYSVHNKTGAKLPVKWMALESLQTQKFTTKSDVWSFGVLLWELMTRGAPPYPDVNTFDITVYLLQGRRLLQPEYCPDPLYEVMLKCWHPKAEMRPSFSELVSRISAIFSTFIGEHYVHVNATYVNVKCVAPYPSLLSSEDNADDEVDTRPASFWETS
The test system of data set [6] is HCT-116 cells. In words: Apoptosis assay, Annexin V-FITC/PI staining. Conditions: HCT-116, treated at IC50 concentration, 24 h. The data set is classed as cell-based. On the procedure: Compared to the control group, the number of both early and late apoptotic cells of target compounds 4b and 4e was increased.
as §3

In data set [7] the target is VEGFR-2 (Homo sapiens, UniProt P35968). In words: In vitro VEGFR-2 tyrosine kinase inhibition assay (BPS KDR Assay Kit).
Chain of VEGFR-2 (P35968 20-1356): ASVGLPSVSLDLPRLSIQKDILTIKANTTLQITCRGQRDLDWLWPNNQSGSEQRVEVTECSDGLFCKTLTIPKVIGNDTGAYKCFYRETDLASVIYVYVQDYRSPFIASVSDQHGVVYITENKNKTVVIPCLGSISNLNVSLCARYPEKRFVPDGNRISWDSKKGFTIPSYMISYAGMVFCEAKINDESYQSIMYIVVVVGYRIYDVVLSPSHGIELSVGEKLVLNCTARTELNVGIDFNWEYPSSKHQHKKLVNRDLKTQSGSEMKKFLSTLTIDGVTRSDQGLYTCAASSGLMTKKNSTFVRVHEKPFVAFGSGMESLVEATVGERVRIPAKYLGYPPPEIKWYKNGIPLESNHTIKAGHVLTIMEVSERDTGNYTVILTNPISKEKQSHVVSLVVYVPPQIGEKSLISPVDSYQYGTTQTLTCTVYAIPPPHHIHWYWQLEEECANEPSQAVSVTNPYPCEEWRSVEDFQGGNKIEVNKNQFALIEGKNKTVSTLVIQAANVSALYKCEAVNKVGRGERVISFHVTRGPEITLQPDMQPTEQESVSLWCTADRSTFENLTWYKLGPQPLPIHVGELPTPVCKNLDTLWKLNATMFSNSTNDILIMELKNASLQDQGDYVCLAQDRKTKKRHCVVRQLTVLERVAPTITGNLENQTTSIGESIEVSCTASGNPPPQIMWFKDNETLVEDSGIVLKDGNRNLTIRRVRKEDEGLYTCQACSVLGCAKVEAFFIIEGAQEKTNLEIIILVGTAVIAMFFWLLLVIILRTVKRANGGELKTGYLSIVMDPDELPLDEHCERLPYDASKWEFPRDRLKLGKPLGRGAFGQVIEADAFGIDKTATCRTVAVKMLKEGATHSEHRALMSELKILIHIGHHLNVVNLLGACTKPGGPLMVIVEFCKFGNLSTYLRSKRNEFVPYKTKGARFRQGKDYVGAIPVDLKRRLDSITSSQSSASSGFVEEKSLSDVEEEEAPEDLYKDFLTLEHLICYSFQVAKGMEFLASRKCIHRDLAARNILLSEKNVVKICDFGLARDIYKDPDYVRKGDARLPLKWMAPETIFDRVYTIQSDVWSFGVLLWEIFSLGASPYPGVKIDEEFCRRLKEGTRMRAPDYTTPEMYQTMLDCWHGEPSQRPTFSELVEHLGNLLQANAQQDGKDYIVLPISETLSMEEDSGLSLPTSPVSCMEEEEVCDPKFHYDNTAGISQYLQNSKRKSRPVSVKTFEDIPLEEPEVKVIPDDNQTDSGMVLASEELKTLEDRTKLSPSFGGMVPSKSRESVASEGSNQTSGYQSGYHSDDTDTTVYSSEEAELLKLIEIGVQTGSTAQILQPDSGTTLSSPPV

A word on the IC50: it is the concentration needed to halve the response being measured. As usually defined, the melting point is the temperature of the solid-liquid transition.

For `O=C(Cn1c(=O)[nH]c2ccccc2c1=O)NCC(=O)NN=C1CCCCC1` [Compound 4e, N-[2-(2-Cyclohexylidenehydrazineyl)-2-oxoethyl]-2-(2,4-dioxo-1,4-dihydroquinazolin-3(2H)-yl)acetamide], the IC50 was 1.41 ± 0.07 µM in data set [1], 10.6 ± 0.62 µM in data set [3], 69 ± 3 nM in data set [5] and 82 ± 4 nM in data set [7]. For the same molecule, the “cytotoxic activity against HCT-116 colon cancer cells, times more than WI38 normal cells” value in data set [2] came out at 7.5 times. Also, the “%G0–G1” value in data set [4] is 44.60%. The “%G2/M” value in data set [4] was 8.51%. Also, the “%S” value in data set [4] came out at 46.89%. Further, the c-Met %inh in data set [5] (conc 0.01 (unit not given)) was found to be 28.94%; in data set [5] (conc 0.1 (unit not given)) it was 55.05%; in data set [5] (conc 1 (unit not given)) it was 80.41%; in data set [5] (conc 10 (unit not given)), 92.94%. Moreover, in data set [6], the “%Necrosis” value worked out at 2.28%. The “Apoptosis %Early” value in data set [6] was 26.76%. Moreover, in data set [6], the “Apoptosis %Late” value is given as 12.02%. Further, the “Apoptosis %Total” value in data set [6] came out at 38.78%. For the same molecule, the VEGFR-2 %inh is 33.05% in data set [7] (conc 0.01 (unit not given)), 50.29% in data set [7] (conc 0.1 (unit not given)), 73.09% in data set [7] (conc 1 (unit not given)) and 86.83% in data set [7] (conc 10 (unit not given)).

With `COc1cc2nccc(Oc3ccc(NC(=O)C4(C(=O)Nc5ccc(F)cc5)CC4)cc3)c2cc1OC` [Cabozantinib, reference compound], in data set [1], the 50% inhibitory concentration (IC50) amounted to 16.4 ± 0.86 µM. For the same molecule, the IC50 in data set [3] amounted to 44.7 ± 2.65 µM. In data set [4], the “%G0–G1” value was determined as 43.12%, the “%G2/M” value is on record as 24.72% and the “%S” value is 32.16%. Moreover, in data set [6], the “%Necrosis” value came out at 3.63%, the “Apoptosis %Early” value is on record as 12.52%, the “Apoptosis %Late” value was 19.61% and the “Apoptosis %Total” value is 32.13%.

Regarding `O=C(Cn1c(=O)[nH]c2ccccc2c1=O)NCC(=O)N/N=C/c1ccccc1` [Compound 4a, (E)-N-[2-(2-Benzylidenehydrazineyl)-2-oxoethyl]-2-(2,4-dioxo-1,4-dihy-droquinazolin-3(2H)-yl)acetamide], the melting point was determined as 325 °C. Besides, the IC50 in data set [1] amounted to 36.9 ± 1.95 µM.

`O=C(Cn1c(=O)[nH]c2ccccc2c1=O)NCC(=O)N/N=C1\C(=O)Nc2ccccc21` [Compound 4f, (Z)-2-[2,4-Dioxo-1,4-dihydroquinazolin-3(2H)-yl]-N-[2-oxo-2-(2-(2-oxoindolin-3-ylidene)hydrazineyl)ethyl]acetamide]: the IC50 in data set [1] was found to be 44.1 ± 2.33 µM.

The molecule `O=C(Cn1c(=O)[nH]c2ccccc2c1=O)N1CCCCC1` [Compound 2e, 3-(2-Oxo-2-(piperidin-1-yl)ethyl)quinazoline-2,4(1H,3H)-dione] gave a melting point of 204 °C. For the same molecule, the IC50 in data set [1] turned out to be 38 ± 2.01 µM.

Regarding `CCOC(=O)CNC(=O)Cn1c(=O)[nH]c2ccccc2c1=O` [Compound 2g, Ethyl [2-(2,4-dioxo-1,4-dihydroquinazolin-3(2H)-yl)acetyl]glycinate], the IC50 in data set [1] was 12.5 ± 0.66 µM.

Turning to `O=C(Cn1c(=O)[nH]c2ccccc2c1=O)Nc1ccccc1` [Compound 2a, 2-(2,4-Dioxo-1,4-dihydroquinazolin-3(2H)-yl)-N-phenylacetamide], in data set [1], the IC50 was 15.1 ± 0.8 µM.

`O=C(Cn1c(=O)[nH]c2ccccc2c1=O)NCC(=O)N/N=C/c1ccco1` [Compound 4d, (E)-2-(2,4-Dioxo-1,4-dihydroquinazolin-3(2H)-yl)-N-[2-(2-[furan-2-ylmethylene]hydrazineyl)-2-oxoethyl]acetamide]: the concentration for half-maximal inhibition (IC50) in data set [1] was 10.8 ± 0.57 µM.

The molecule `NNC(=O)CNC(=O)Cn1c(=O)[nH]c2ccccc2c1=O` [Compound 3, 2-(2,4-Dioxo-1,4-dihydroquinazolin-3(2H)-yl)-N-(2-hydrazineyl-2-oxo-ethyl)acetamide] showed a melting point of 296 to 298 °C. Moreover, the IC50 in data set [1] was determined as 24.3 ± 1.28 µM.

Take `O=C(Cn1c(=O)[nH]c2ccccc2c1=O)NC1CCCCC1` [Compound 2c, N-Cyclohexyl-2-(2,4-dioxo-1,4-dihydroquinazolin-3(2H)-yl)acetamide]: the IC50 stood at 4.69 ± 0.25 µM in data set [1], 84 ± 4 nM in data set [5] and 52 ± 2 nM in data set [7]. Besides, the c-Met %inh is 27.36% in data set [5] (conc 0.01 (unit not given)), 55.94% in data set [5] (conc 0.1 (unit not given)), 73.28% in data set [5] (conc 1 (unit not given)) and 92.28% in data set [5] (conc 10 (unit not given)). In addition, the VEGFR-2 %inh came out at 35.32% in data set [7] (conc 0.01 (unit not given)), 56.18% in data set [7] (conc 0.1 (unit not given)), 76.46% in data set [7] (conc 1 (unit not given)) and 88.96% in data set [7] (conc 10 (unit not given)).

Regarding `O=C(Cn1c(=O)[nH]c2ccccc2c1=O)NCc1n[nH]c(=S)o1` [Compound 4h, 2-(2,4-Dioxo-1,4-dihydroquinazolin-3(2H)-yl)-N-[(5-thioxo-4,5-dihydro-1,3,4-oxadiazol-2-yl)methyl]acetamide], the IC50 in data set [1] turned out to be 6.99 ± 0.37 µM; in data set [5], 245 ± 11 nM; in data set [7], 297 ± 13 nM. The c-Met %inh in data set [5] (conc 0.01 (unit not given)) was found to be 17.87%; in data set [5] (conc 0.1 (unit not given)), 35.84%; in data set [5] (conc 1 (unit not given)), 70.09%; in data set [5] (conc 10 (unit not given)), 86.83%. Further, the VEGFR-2 %inh came to 18.58% in data set [7] (conc 0.01 (unit not given)), 40.45% in data set [7] (conc 0.1 (unit not given)), 60.74% in data set [7] (conc 1 (unit not given)) and 82.49% in data set [7] (conc 10 (unit not given)).

Consider `CN(C)C(=O)Cn1c(=O)[nH]c2ccccc2c1=O` [Compound 2d, 2-(2,4-Dioxo-1,4-dihydroquinazolin-3(2H)-yl)-N,N-dimethylacetamide], for which the melting point is 218 to 220 °C. For the same molecule, the half-maximal inhibitory concentration (IC50) in data set [1] worked out at 47.5 ± 2.51 µM.

The molecule `O=C(Cn1c(=O)[nH]c2ccccc2c1=O)NCc1ccccc1` [Compound 2b, N-Benzyl-2-(2,4-dioxo-1,4-dihydroquinazolin-3(2H)-yl)acetamide] registered a melting point of 298 to 299 °C. In data set [1], the IC50 was 16 ± 0.85 µM.

The molecule `O=C(Cn1c(=O)[nH]c2ccccc2c1=O)N1CCOCC1` [Compound 2f, 3-(2-Morpholino-2-oxoethyl)quinazoline-2,4(1H,3H)-dione] registered a melting point of 254 to 255 °C. Also, the IC50 in data set [1] was 5.4 ± 0.29 µM. Moreover, the IC50 in data set [5] worked out at 161 ± 7 nM. Also, in data set [5] (conc 0.01 (unit not given)), the c-Met %inh was 22.84%. For the same molecule, in data set [5] (conc 0.1 (unit not given)), the c-Met %inh was 44.08%. Also, the c-Met %inh in data set [5] (conc 1 (unit not given)) is 70.59%. Further, the c-Met %inh in data set [5] (conc 10 (unit not given)) is given as 88.98%. The molecule also had an IC50 in data set [7] of 210 ± 9 nM. In data set [7] (conc 0.01 (unit not given)), this molecule came in with a VEGFR-2 %inh of 18.54%. For the same molecule, in data set [7] (conc 0.1 (unit not given)), the VEGFR-2 %inh was found to be 43.39%. Moreover, the VEGFR-2 %inh in data set [7] (conc 1 (unit not given)) was 68.26%. In data set [7] (conc 10 (unit not given)), the VEGFR-2 %inh was determined as 85.96%.

As for `Cc1cc(C)n(C(=O)CNC(=O)Cn2c(=O)[nH]c3ccccc3c2=O)n1` [Compound 4g, N-[2-(3,5-Dimethyl-1H-pyrazol-1-yl)-2-oxoethyl]-2-(2,4-dioxo-1,4-dihyd-roquinazolin-3(2H)-yl)acetamide], the melting point was 284 to 286 °C. Besides, in data set [1], the IC50 was found to be 3.7 ± 0.2 µM. This molecule gave an IC50 in data set [5] of 271 ± 12 nM. For the same molecule, the c-Met %inh in data set [5] (conc 0.01 (unit not given)) turned out to be 20.56%. The c-Met %inh in data set [5] (conc 0.1 (unit not given)) is on record as 34.11%. The same molecule showed a c-Met %inh in data set [5] (conc 1 (unit not given)) of 65.69%. In data set [5] (conc 10 (unit not given)), this molecule gave a c-Met %inh of 85.71%. In addition, inhibition in data set [7] was half-maximal at 103 ± 5 nM (IC50). The VEGFR-2 %inh in data set [7] (conc 0.01 (unit not given)) came to 27.96%. The molecule also displayed a VEGFR-2 %inh in data set [7] (conc 0.1 (unit not given)) of 52.07%. The VEGFR-2 %inh in data set [7] (conc 1 (unit not given)) is given as 70.58%. In data set [7] (conc 10 (unit not given)), this molecule registered a VEGFR-2 %inh of 88.15%.

Molecule `COc1ccc(/C=N/NC(=O)CNC(=O)Cn2c(=O)[nH]c3ccccc3c2=O)cc1` [Compound 4c, (E)-2-(2,4-Dioxo-1,4-dihydroquinazolin-3(2H)-yl)-N-[2-(2-[4-methoxy-benzylidene]hydrazineyl)-2-oxoethyl]acetamide] yielded a melting point of 290 to 292 °C. Moreover, the half-maximal inhibitory concentration (IC50) in data set [1] was 31.8 ± 1.68 µM.

`O=C(Cn1c(=O)[nH]c2ccccc2c1=O)NCC(=O)NNC(=S)Nc1ccccc1` [Compound 4i, 2-(2,4-Dioxo-1,4-dihydroquinazolin-3(2H)-yl)-N-[2-oxo-2-(2-[phenylcar-bamothioyl]hydrazineyl)ethyl]acetamide] came in with a melting point of 287 to 290 °C. For the same molecule, in data set [1], the IC50 was found to be 9.2 ± 0.49 µM.

Regarding `O=C(Cn1c(=O)[nH]c2ccccc2c1=O)NCc1n[nH]c(=S)n1-c1ccccc1` [Compound 4j, 2-(2,4-Dioxo-1,4-dihydroquinazolin-3(2H)-yl)-N-[(4-phenyl-5-thioxo-4,5-dihydro-1H-1,2,4-triazol-3-yl)methyl]acetamide], the 50% inhibitory concentration (IC50) in data set [1] turned out to be 18.9 ± 1 µM.

(Values after PMC10026756.)
